The numbers were not newly measured in patent US9693981B2 (INTEC PHARMA LTD., priority 2008, dated 2017), which cites them from elsewhere.

Structures are written as SMILES.

The conditions of data set [1]: according to the USP 30.
For data set [2] the following is noted: high-fat/heavy meal compared to the fasted state, healthy adults.

Consider `CCN(C(C)=O)c1cccc(-c2ccnc3c(C#N)cnn23)c1` [Zaleplon], for which, in data set [1], the solubility entry was “very slightly soluble”. In data set [2], the AUC entry is on record as “not significantly affected”, the “delay of Tmax” value is reported as “approximately 2 hours” and the “reduction of Cmax” value is “approximately 35%”.
